From the supplement of paper PMC11451515

Tested on: P12-Ichikawa
Experiment: cell viability relative to DMSO control; higher = less cytotoxic
Settings: 48 h
Procedure, shortened: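 In 1536-well plates, 5 μl of leukemia cells were seeded per well: 500 cells/well for NOMO1 or SEM and 1000 cells/well for P12-Ichikawa. Each line had first been adapted for at least four passages in each medium. Library compounds in DMSO were pin-dosed at 11 threefold concentrations between 47 μM and 0.79 nM, and CellTiter-Glo One luminescence was read after 48 h at 37°C. Viability is a per-plate percentage relative to DMSO wells, with cell-free wells as background.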

[1] = HPLM + 10% dialyzed FBS, 0.000781 µM
[2] = HPLM + 10% dialyzed FBS, 0.00234 µM
[3] = HPLM + 10% dialyzed FBS, 0.00702 µM
[4] = HPLM + 10% dialyzed FBS, 0.0211 µM
[5] = HPLM + 10% dialyzed FBS, 0.0632 µM
[6] = HPLM + 10% dialyzed FBS, 0.19 µM
[7] = HPLM + 10% dialyzed FBS, 0.569 µM
[8] = HPLM + 10% dialyzed FBS, 1.71 µM
[9] = HPLM + 10% dialyzed FBS, 5.12 µM
[10] = HPLM + 10% dialyzed FBS, 15.4 µM
[11] = HPLM + 10% dialyzed FBS, 46.1 µM
[12] = RPMI 5 mM glucose + 10% FBS, 0.000781 µM
[13] = RPMI 5 mM glucose + 10% FBS, 0.00234 µM
[14] = RPMI 5 mM glucose + 10% FBS, 0.00702 µM
[15] = RPMI 5 mM glucose + 10% FBS, 0.0211 µM
[16] = RPMI 5 mM glucose + 10% FBS, 0.0632 µM
[17] = RPMI 5 mM glucose + 10% FBS, 0.19 µM
[18] = RPMI 5 mM glucose + 10% FBS, 0.569 µM
[19] = RPMI 5 mM glucose + 10% FBS, 1.71 µM
[20] = RPMI 5 mM glucose + 10% FBS, 5.12 µM
[21] = RPMI 5 mM glucose + 10% FBS, 15.4 µM
[22] = RPMI 5 mM glucose + 10% FBS, 46.1 µM
[23] = RPMI 5 mM glucose + 10% dialyzed FBS, 0.000781 µM
[24] = RPMI 5 mM glucose + 10% dialyzed FBS, 0.00234 µM
[25] = RPMI 5 mM glucose + 10% dialyzed FBS, 0.00702 µM
[26] = RPMI 5 mM glucose + 10% dialyzed FBS, 0.0211 µM
[27] = RPMI 5 mM glucose + 10% dialyzed FBS, 0.0632 µM
[28] = RPMI 5 mM glucose + 10% dialyzed FBS, 0.19 µM
[29] = RPMI 5 mM glucose + 10% dialyzed FBS, 0.569 µM
[30] = RPMI 5 mM glucose + 10% dialyzed FBS, 1.71 µM
[31] = RPMI 5 mM glucose + 10% dialyzed FBS, 5.12 µM
[32] = RPMI 5 mM glucose + 10% dialyzed FBS, 15.4 µM
[33] = RPMI 5 mM glucose + 10% dialyzed FBS, 46.1 µM

| SMILES | cell viability [1] | cell viability [2] | cell viability [3] | cell viability [4] | cell viability [5] | cell viability [6] | cell viability [7] | cell viability [8] | cell viability [9] | cell viability [10] | cell viability [11] | cell viability [12] | cell viability [13] | cell viability [14] | cell viability [15] | cell viability [16] | cell viability [17] | cell viability [18] | cell viability [19] | cell viability [20] | cell viability [21] | cell viability [22] | cell viability [23] | cell viability [24] | cell viability [25] | cell viability [26] | cell viability [27] | cell viability [28] | cell viability [29] | cell viability [30] | cell viability [31] | cell viability [32] | cell viability [33] |
| --- | --- | --- | --- | --- | --- | --- | --- | --- | --- | --- | --- | --- | --- | --- | --- | --- | --- | --- | --- | --- | --- | --- | --- | --- | --- | --- | --- | --- | --- | --- | --- | --- | --- |
| N#C/C(=C\c1ccc(O)c(O)c1)C(=O)NCc1ccccc1 | 101% | 96.5% | 103% | 106% | 104% | 106% | 103% | 100% | 102% | 68.5% | 47.4% | 105% | 106% | 101% | 101% | 103% | 94.3% | 103% | 97.6% | 87% | 68.2% | 36.7% | 95.2% | 96.1% | 99.5% | 97% | 98.7% | 88.3% | 93.1% | 94.7% | 80.3% | 67.7% | 41.5% |
| C[N]1C=C(C2=CC=CC=C12)\C3=C(\C(=O)NC3=O)C4=C[N](C5CCN(CC5)CC6=NC=CC=C6)C7=C4C=CC=C7 | 110% | 116% | 115% | 119% | 118% | 123% | 120% | 118% | 118% | 120% | 117% | 118% | 126% | 119% | 115% | 118% | 123% | 127% | 124% | 116% | 116% | 125% |  |  |  |  |  |  |  |  |  |  |  |
| Cc1ccc(C(=O)Nc2cccc(C(F)(F)F)c2)cc1-c1ccc2nc(NCCN3CCOCC3)ncc2c1 | 110% | 111% | 112% | 111% | 116% | 109% | 107% | 92.6% | 85% | 64.2% | 42.6% | 105% | 106% | 119% | 115% | 113% | 111% | 113% | 109% | 62.2% | 50.3% | 31.7% | 110% | 107% | 107% | 105% | 116% | 107% | 103% | 92.5% | 73.7% | 49.3% | 30.5% |
| N[C@H]2CN(CC12CC1)c3c(F)cc4c(c3Cl)[N@@](C=C(C4=O)C(=O)O)C5C[C@H]5F (stereo partly specified) | 97.7% | 91.2% | 101% | 87.6% | 96.6% | 89.8% | 87.3% | 96.1% | 88.8% | 85.4% | 89.9% | 79.9% | 91% | 88.8% | 90.4% | 85.8% | 94.5% | 83% | 82.9% | 95% | 83.5% | 86.1% | 80.7% | 84.8% | 86% | 88.3% | 82.5% | 85.2% | 80.9% | 78% | 84.2% | 77.7% | 81.3% |
